Measurements published in patent publication US8003812B2, “C10 cyclopentyl ester substituted taxanes” (priority 2004, dated 2011).
Several values for one entry are separate records, joined by “and”; a condition that tells them apart may be missing. Identical values can stand only once. Like-named read-outs stand apart in the source and are kept apart here.

How the values were obtained:
[1] = test system: HCT 116 human colon carcinoma; experiment: In vitro cytotoxicity, cell colony formation assay, HCT116; assay type: cell-based; conditions: 72 h drug incubation
Experimental: The cells were incubated in a CO2 incubator at 37° C. for 5 h for attachment to the bottom of Petri dishes. The compound of the present invention was made up fresh in medium at ten times the final concentration, and then 0.3 mL of this stock solution was added to the 2.7 mL of medium in the dish. The cells were then incubated with drugs for 72 h at 37° C. At the end of incubation the drug-containing media were decanted, the dishes were rinsed with 4 mL of Hank's Balance Salt Solution (HBSS), 5 mL of fresh medium was added, and the dishes were returned to the incubator for colony formation. The cell colonies were counted using a colony counter after incubation for 7 days. Cell survival was calculated and the values of IC50 (the drug concentration producing 50% inhibition of colony formation) were determined for each tested compound.

[2] = test system: human pancreatic tumor xenograft Panc-1; conditions: for Efficacy Score = 10*(TWd1−TWdn)/TWd1: single dose IV
Source text: [formula] where TTE is expressed in days, endpoint volume is in mm^3, b is the intercept, and m is the slope of the line obtained by linear regression of a log-transformed tumor growth data set. The data set is comprised of the first observation that exceeded the study endpoint volume and the three consecutive observations that immediately preceded the attainment of the endpoint volume. […] Animals classified as TR (treatment-related) deaths or NTRM (non-treatment-related metastasis) deaths are assigned a TTE value equal to the day of death. Animals classified as NTR (non-treatment-related) deaths are excluded from TTE calculations. Treatment efficacy was determined from tumor growth delay (TGD), which is defined as the increase in the median TTE for a treatment group compared to the control group: TGD=T−C, expressed in days, or as a percentage of the median TTE of the control group:
Treatment may cause partial regression (PR) or complete regression (CR) of the tumor in an animal. In a PR response, the tumor volume is 50% or less of its Day 1 volume for three consecutive measurements during the course of the study, and equal to or greater than 13.5 mm^3 for one or more of these three measurements. In a CR response, the tumor volume is less than 13.5 mm^3 for three consecutive measurements during the course of the study. An animal with a CR response at the termination of a study is additionally classified as a long-term tumor-free survivor (LTTFS).
With respect to toxicity, the animals were weighed daily on Days 1-5, then twice weekly until the completion of the study. The mice were examined frequently for overt signs of any adverse, drug-related side effects. […] The log rank test was employed to analyze the significance of the difference between the TTE values of a drug-treated group and the vehicle-treated control group. The log rank test analyzes the data for all animals except the NTR deaths. The two-tailed statistical analyses were conducted at P=0.05. The group median tumor growth curves show the median tumor volume (MTV) as a function of time. When an animal exited the study due to tumor size or TR death, the final tumor volume recorded for the animal was included with the data used to calculate the median volume at subsequent time points. If more than one death occurred in a treatment group, the tumor growth curve for that group was truncated at the time of the second death.
Human Panc-1 pancreatic carcinomas were maintained in athymic nude mice. A tumor fragment (1 mm^3) was implanted s.c. into the right flank of each test mouse. Tumors were monitored twice weekly and then daily as their size approached 200-400 mm^3 with a mean of 250-300 mm^3. On Day 1 of the study, the animals were sorted into groups of six mice, with tumor sizes of 171.5-486.0 mm^3 and group mean tumor sizes of 269.7-275.0 mm^3. Mice were sorted into groups containing six mice each, and treated according to the protocol in Tables 2A and 2B. All treatments were administered intravenously. Control Group 1 mice received the ethanol 5% and Liposyn II 95% vehicle, once on Day 1 (qd×1). […] Dosing volumes were 0.5 ml/20 g body weight for qd×1 dosing regimens and 0.3 mL/20 g body weight for the qod×5 or q4d×4 dosing schedules. Dosing volumes were scaled to the body weight of each animal. The vehicle was given to Group 1 mice in a single dose on Day 1 (qd×1).

Sprague-Dawley rats [3] = experiment: In vivo toxicity assessment in rats, oral; design: species or system rat; key to Neu Tox score: N (0); −10: Y (1-4); key to PTL R (Recovery) score / L/W Dia score / B/M Dia score / BW R (Recovery) score / WBC R (Recovery) score: −5: N; 0: Y; conditions: for Total Score AVE: average of 3 rats; for Total Score: per rat, maximum 130; for ALT score / AST score / B/M Dia score / BW score / L/W Dia score / Neu Tox score / WBC R (Recovery) score / WBC score / BUN score / BW R (Recovery) score / PTL R (Recovery) score / PTL score: score per rat
Experimental: (§1) Toxicity was assessed in 250-300g Sprague-Dawley rats and three rats were used per dose group. Three dose groups of the test compound, (i.e., 3 mg/kg, 9 mg/kg and 12 mg/kg for intravenous administration; 15 mg/kg, 30 mg/kg and 40 mg/kg) and 1 control group constituted a study. Animals were observed and clinical chemistry data collected at days 4 and 10. Rats were euthanized on day 11 and the nerves were excised and fixed upon euthanization for further examination.
(§2) Each rat is scored as described below and a final toxicity score that incorporates all parameters is assigned. A dead rat is assigned a score of zero. Most of the parameters contribute a positive value towards a total possible score of 130. For body weight, white blood cell, and platelet decreases, recovery is considered. […] The total score is divided by 13 to put it on a scale from 0 to 10.

Sprague-Dawley rats [4] = experiment: In vivo toxicity assessment in rats, intravenous
Experimental: as §1, §2

[5] = Group 2: 20 mg/kg IV qod × 5, 6 mice
[6] = Group 3: 30 mg/kg IV q4d × 4, 6 mice
[7] = Group 4: 120 mg/kg IV qd × 1, 6 mice
[8] = Group 5: 60 mg/kg IV qd × 5 (Table 2A), 6 mice
[9] = oral, High Dose 40 mg/kg, 40 mg/kg
[10] = oral, Low Dose 15 mg/kg, 15 mg/kg
[11] = oral, Mid Dose 30 mg/kg, 30 mg/kg
[12] = IV, second IV 9091 line (two IV dosage regimens)

CC(=O)OC12COC1CC(O)C1(C)C(=O)C(OC(=O)C3CCCC3)C3=C(C)C(OC(=O)C(O)C(NC(=O)OC(C)C)c4cccs4)CC(O)(C(OC(=O)c4ccccc4)C21)C3(C)C (stereo not shown) [Compound 9091]
IC50 [1]: 0.6 nM and 0.63 nM | antitumor effectiveness among IV regimens ([2]; 30 mg/kg q4d×4 IV regimen): most effective | No. of CR [2, 5]: 0 | No. of LTTES [2, 5]: 0 | No. of NTR [2, 5]: 0 | No. of PR [2, 5]: 1 | No. of TR [2, 5]: 5 | Max % BW Loss; Day ([2]; Group 2: 20 mg/kg IV qod × 5, Day 10): −15.7%; | Tumor Burden Median (n), Day 56 ([2]; Group 2: 20 mg/kg IV qod × 5, n=1): 108 (1) mm^3 | Median TTE ([2]; Group 2: 20 mg/kg IV qod × 5, not evaluable for efficacy (five TR deaths)): 10.0 days | T − C ([2]; Group 3: 30 mg/kg IV q4d × 4): 40.2 days | % TGD ([2]; Group 3: 30 mg/kg IV q4d × 4, 30 mg/kg): 254% | No. of CR [2, 6]: 1 | No. of LTTES [2, 6]: 1 | No. of NTR [2, 6]: 0 | No. of PR [2, 6]: 5 | No. of TR [2, 6]: 0 | Tumor Burden Median (n), Day 56 (MTV) ([2]; Group 3: 30 mg/kg IV q4d × 4, Day 56): 40 mm^3 | Tumor Burden Median (n), Day 56 (MTV) ([2]; Group 3: 30 mg/kg IV q4d × 4, Day 56, 30 mg/kg): 40.25 (6) mm^3 | Median TTE ([2]; Group 3: 30 mg/kg IV q4d × 4, endpoint 1200 mg): 56.0 days | T − C ([2]; Group 4: 120 mg/kg IV qd × 1): 40.2 days | % TGD ([2]; Group 4: 120 mg/kg IV qd × 1, 120 mg/kg): 254% | No. of CR [2, 7]: 0 | No. of LTTES [2, 7]: 0 | No. of NTR [2, 7]: 2 | No. of PR [2, 7]: 6 | No. of TR [2, 7]: 0 | Tumor Burden Median (n), Day 56 (MTV) ([2]; Group 4: 120 mg/kg IV qd × 1, Day 56, 120 mg/kg): 58 mm^3 and 57.5 (6) mm^3 | Median TTE ([2]; Group 4: 120 mg/kg IV qd × 1, endpoint 1200 mg): 56.0 days | T − C ([2]; Group 5: 60 mg/kg IV qd × 5 (Table 2A)): 40.2 days | % TGD ([2]; Group 5: 60 mg/kg IV qd × 5 (Table 2A), 60 mg/kg): 254% | No. of CR [2, 8]: 0 | No. of LTTES [2, 8]: 0 | No. of NTR [2, 8]: 0 | No. of PR [2, 8]: 6 | No. of TR [2, 8]: 0 | Tumor Burden Median (n), Day 56 (MTV) ([2]; Group 5: 60 mg/kg IV qd × 5 (Table 2A), Day 56, 60 mg/kg): 126 mm^3 and 126 (6) mm^3 | Median TTE ([2]; Group 5: 60 mg/kg IV qd × 5 (Table 2A), endpoint 1200 mg): 56.0 days | end-of-study survivors ([2]; each of 30 mg/kg q4d×4, 120 mg/kg and 60 mg/kg single dose IV, 6 mice per group): six | Efficacy Score = 10*(TWd1−TWdn)/TWd1 ([2]; Dose 60, best score 10): 7.7 | Efficacy Score = 10*(TWd1−TWdn)/TWd1 ([2]; Dose 120, best score 10): 8.6 | Tox Score, Dose 15 mg (Sprague-Dawley rats [3]; Oral, dose 15 mg, scale 0 to 10): 7.4 | Tox Score, Dose 30 mg (Sprague-Dawley rats [3]; Oral, dose 30 mg, scale 0 to 10): 6.7 | Tox Score, Dose 40 mg (Sprague-Dawley rats [3]; Oral, dose 40 mg, scale 0 to 10): 4.6 | Tox Score, Average (Sprague-Dawley rats [3]; Oral, average of 3 dose groups): 6.2 | Tox Score, Weighted Avg (Sprague-Dawley rats [3]; Oral, weighted by dose): 5.8 | Rat tox score PO (Sprague-Dawley rats [3]; PO, summary score, scale 0 to 10): 6 | toxicity profile in the oral rat studies compared with congener (Sprague-Dawley rats [3]; oral): better toxicity profile | Total Score AVE (Sprague-Dawley rats [3]; oral, High Dose 40 mg/kg): 60 | Total Score (Sprague-Dawley rats [3]; [9]): 55 and 65 and 60 | Group score = average of 3 rats/13 (Sprague-Dawley rats [3]; oral, High Dose 40 mg/kg, scale 0 to 10): 4.62 | ALT score (Sprague-Dawley rats [3]; oral, High Dose 40 mg/kg): 20 (<1.25Xcont) | AST score (Sprague-Dawley rats [3]; oral, High Dose 40 mg/kg): 20 (<1.25Xcont) | B/M Dia score (Sprague-Dawley rats [3]; oral, High Dose 40 mg/kg): 0 | BW score (Sprague-Dawley rats [3]; oral, High Dose 40 mg/kg): 0 (≧20%) | L/W Dia score (Sprague-Dawley rats [3]; oral, High Dose 40 mg/kg): 0 | Neu Tox score (Sprague-Dawley rats [3]; oral, High Dose 40 mg/kg): −10 | WBC R (Recovery) score (Sprague-Dawley rats [3]; oral, High Dose 40 mg/kg): 0 | WBC score (Sprague-Dawley rats [3]; oral, High Dose 40 mg/kg): 0 (≧50%) | BUN score (Sprague-Dawley rats [3]; [9]): 10 (≧1.25Xcont) and 20 (<1.25Xcont) (2×) | BW R (Recovery) score (Sprague-Dawley rats [3]; [9]): 0 and −5 (2×) | PTL R (Recovery) score (Sprague-Dawley rats [3]; [9]): −5 and 0 (2×) | PTL score (Sprague-Dawley rats [3]; [9]): 20 (<25%) (2×) and 5 (≧50%) | Total Score AVE (Sprague-Dawley rats [3]; oral, Low Dose 15 mg/kg): 96.7 | Total Score (Sprague-Dawley rats [3]; [10]): 110 and 85 and 95 | Group score = average of 3 rats/13 (Sprague-Dawley rats [3]; oral, Low Dose 15 mg/kg, scale 0 to 10): 7.44 | ALT score (Sprague-Dawley rats [3]; oral, Low Dose 15 mg/kg): 20 (<1.25Xcont) | AST score (Sprague-Dawley rats [3]; oral, Low Dose 15 mg/kg): 20 (<1.25Xcont) | B/M Dia score (Sprague-Dawley rats [3]; oral, Low Dose 15 mg/kg): 5 | BUN score (Sprague-Dawley rats [3]; oral, Low Dose 15 mg/kg): 20 (<1.25Xcont) | BW R (Recovery) score (Sprague-Dawley rats [3]; oral, Low Dose 15 mg/kg): 0 | L/W Dia score (Sprague-Dawley rats [3]; oral, Low Dose 15 mg/kg): 0 | Neu Tox score (Sprague-Dawley rats [3]; oral, Low Dose 15 mg/kg): −10 | PTL R (Recovery) score (Sprague-Dawley rats [3]; oral, Low Dose 15 mg/kg): 0 | WBC R (Recovery) score (Sprague-Dawley rats [3]; oral, Low Dose 15 mg/kg): 0 | BW score (Sprague-Dawley rats [3]; [10]): 20 (<10%) (2×) and 10 (≧10%) | PTL score (Sprague-Dawley rats [3]; [10]): 20 (<25%) (2×) and 10 (≧25%) | WBC score (Sprague-Dawley rats [3]; [10]): 5 (≧25%) and 0 (≧50%) (2×) | Total Score AVE (Sprague-Dawley rats [3]; oral, Mid Dose 30 mg/kg): 86.7 | Total Score (Sprague-Dawley rats [3]; [11]): 85 and 95 and 80 | Group score = average of 3 rats/13 (Sprague-Dawley rats [3]; oral, Mid Dose 30 mg/kg, scale 0 to 10): 6.67 | ALT score (Sprague-Dawley rats [3]; oral, Mid Dose 30 mg/kg): 20 (<1.25Xcont) | AST score (Sprague-Dawley rats [3]; oral, Mid Dose 30 mg/kg): 20 (<1.25Xcont) | B/M Dia score (Sprague-Dawley rats [3]; oral, Mid Dose 30 mg/kg): 0 | BUN score (Sprague-Dawley rats [3]; oral, Mid Dose 30 mg/kg): 20 (<1.25Xcont) | BW R (Recovery) score (Sprague-Dawley rats [3]; oral, Mid Dose 30 mg/kg): 0 | L/W Dia score (Sprague-Dawley rats [3]; oral, Mid Dose 30 mg/kg): 0 | Neu Tox score (Sprague-Dawley rats [3]; oral, Mid Dose 30 mg/kg): −10 | PTL R (Recovery) score (Sprague-Dawley rats [3]; oral, Mid Dose 30 mg/kg): 0 | PTL score (Sprague-Dawley rats [3]; oral, Mid Dose 30 mg/kg): 20 (<25%) | WBC R (Recovery) score (Sprague-Dawley rats [3]; oral, Mid Dose 30 mg/kg): 0 | BW score (Sprague-Dawley rats [3]; [11]): 5 (≧15%) and 10 (≧10%) (2×) | WBC score (Sprague-Dawley rats [3]; [11]): 0 (≧50%) (2×) and 5 (≧25%) | Tox Score, Dose 3 mg (Sprague-Dawley rats [4]; IV, scale 0 to 10): 9 | Tox Score, Dose 3 mg (Sprague-Dawley rats [4]; [12]): 9.5 | Tox Score, Dose 9 mg (Sprague-Dawley rats [4]; IV, scale 0 to 10): 7.1 | Tox Score, Dose 9 mg (Sprague-Dawley rats [4]; [12]): 8.1 | Tox Score, Dose 12 mg (Sprague-Dawley rats [4]; IV, scale 0 to 10): 7.8 | Tox Score, Dose 12 mg (Sprague-Dawley rats [4]; [12]): 6.8 | Tox Score, Weighted Avg (Sprague-Dawley rats [4]; IV, Wt Avg = (Σ(dose × grp score))/24): 7.7 | Tox Score, Average (Sprague-Dawley rats [4]; IV, average of 3 dose groups): 7.9 | Tox Score, Average (Sprague-Dawley rats [4]; [12]): 8.1 | Tox Score, Weighted Avg (Sprague-Dawley rats [4]; [12]): 7.6 | Rat tox score IV (second value in cell) (Sprague-Dawley rats [4]; IV, second of two values printed for 9091 (two IV regimens)): 8, 8 | Rat tox score IV (Sprague-Dawley rats [4]; IV, summary score, scale 0 to 10): 8, 8 | toxicity profile in rats compared with congeners (Sprague-Dawley rats [4]; administered intravenously): best toxicity profile
